Experimental data: patent US8178506B2, “Oligomeric compounds and compositions for use in modulation of small non-coding RNAs” (Regulus Therapeutics Inc., priority 2003, dated 2012)
In the oligonucleotide strings, read from the 5' end, every base follows the letter of its sugar. An asterisk marks phosphorothioate; unmarked linkages are phosphodiester. Other units and linkages are bracketed, terminal groups are in braces. A string of capitals states the bases alone. e = 2'-O-(2-methoxyethyl) (MOE); [5mC] = 5-methylcytosine

Key:
[1] = test system: adipocytes; experiment: Triglyceride accumulation assay in adipocytes; format: cell-based, human
[2] = test system: aP2; experiment: aP2 mRNA expression in adipocytes (real-time PCR); format: cell-based, human; details: for aP2 mRNA / AP2 mRNA: differentiating adipocytes transfected with oligomeric compound; for aP2 mRNA: Table 75; for AP2 (mRNA expression): adipocytes, 250 nM oligomeric compound, day nine post-transfection, relative to control (1.0)
[3] = test system: HSL; experiment: HSL mRNA expression in adipocytes (real-time PCR); format: cell-based, human; details: for HSL mRNA: differentiating adipocytes transfected with oligomeric compound; for HSL (mRNA expression): adipocytes, 250 nM oligomeric compound, day nine post-transfection, relative to control (1.0)
[4] = test system: Glut4; experiment: Glut4 mRNA expression in adipocytes (real-time PCR); format: cell-based, human; details: for GLUT4 mRNA: differentiating adipocytes transfected with oligomeric compound; for Glut4 (mRNA expression): adipocytes, 250 nM oligomeric compound, day nine post-transfection, relative to control (1.0)
[5] = test system: PPARγ; experiment: PPARγ mRNA expression in adipocytes (real-time PCR); format: cell-based, human; details: for PPAR gamma mRNA: differentiating adipocytes transfected with oligomeric compound; for PPAR gamma (mRNA expression): adipocytes, 250 nM oligomeric compound, day nine post-transfection, relative to control (1.0)
[6] = test system: HuVECs; experiment: Endothelial tube formation assay in HuVECs; details: 75 nM oligomeric compound
Procedure: In some embodiments, HUVECs are used to measure the effects of oligomeric compounds of the invention on endothelial tube formation activity. The tube formation assay is performed using an in vitro Angiogenesis Assay Kit (Chemicon International, Temecula, Calif.).
Untreated control cells receive LIPOFECTIN™ only.
Approximately fifty hours after transfection, cells are transferred to 96-well plates coated with ECMatrix™ (Chemicon International). Under these conditions, untreated HUVECs form tube-like structures. After an overnight incubation at 37° C., treated and untreated cells are inspected by light microscopy. Tube formation in cells treated with oligomeric compounds is compared to that in untreated control cells. Individual wells are assigned discrete scores from 1 to 5 depending on the extent of tube formation. A score of 1 refers to a well with no tube formation while a score of 5 is given to wells where all cells are forming an extensive tubular network.
In one embodiment, primary human umbilical vein endothelial cells (HuVECs) were used to measure the effects of oligomeric compounds targeted to miRNAs on tube formation activity. HuVECs were routinely cultured in EBM (Clonetics Corporation, Walkersville, Md.) supplemented with SingleQuots supplements (Clonetics Corporation, Walkersville, Md.). […] HuVECs are plated at 3000 cells/well in 96-well plates. One day later, cells are transfected with oligomeric compounds. The tube formation assay is performed using an in vitro Angiogenesis Assay Kit (Chemicon International, Temecula, Calif.).
ISIS 29248 and ISIS 196103 are chimeric 5-10-52′-MOE gapmer oligonucleotides. […] All cytidine residues are 5-methylcytidines. ISIS 342672 (SEQ ID NO: 789) contains 13 mismatches with respect to the mature mir-143 miRNA, and was also used as a negative control. ISIS 342672 is a uniform 2′-MOE phosphorothioate oligomeric compound 22 nucleotides in length. All cytidine residues are 5-methylcytidines.
Oligomeric compound was mixed with LIPOFECTIN™ (Invitrogen Life Technologies, Carlsbad, Calif.) in OPTI-MEM™ (Invitrogen Life Technologies, Carlsbad, Calif.) to achieve a final concentration of 75 nM of oligomeric compound and 2.25 μg/mL LIPOFECTIN™. Before adding to cells, the oligomeric compound, LIPOFECTIN™ and OPTI-MEM™ were mixed thoroughly and incubated for 0.5 hrs. Untreated control cells received LIPOFECTIN™ only. […] Compounds targeted to miRNAs were tested in triplicate, and ISIS 29848 was tested in up to six replicates. […] 100 μL of full growth medium was added to each well. Fifty hours after transfection, cells are transferred to 96-well plates coated with ECMa-trix™ (Chemicon Inter-national). Under these conditions, untreated HuVECs form tube-like structures.

[7] = differentiating adipocytes transfected with oligomeric compound, Table 75
[8] = differentiating adipocytes transfected with oligomeric compound
[9] = adipocytes, 250 nM oligomeric compound, relative to control (1.0), Table 15
[10] = adipocytes, 250 nM oligomeric compound, relative to control (1.0), Table 16

Substance	TG (triglyceride accumulation) [1, 7]	aP2 mRNA [2]	HSL mRNA ([3]; Table 75)	GLUT4 mRNA ([4]; Table 75)	PPAR gamma mRNA ([5]; Table 75)	% Activity Relative to UTC (tube formation) ([6]; Table 57) [%]	TG (triglyceride accumulation) [1, 9]	AP2 (mRNA expression) ([2]; Table 15)	HSL (mRNA expression) ([3]; Table 15)	Glut4 (mRNA expression) ([4]; Table 15)	PPAR gamma (mRNA expression) ([5]; Table 15)	also measured
327896 (antisense eA*e[5mC]*eA*eG*eT*eT*e[5mC]*eT*eT*e[5mC]*eA*eA*e[5mC]*eT*eG*eG*e[5mC]*eA*eG*e[5mC]*eT*eT) [compound 327896]	22 percentage of untreated control (UTC)	43 percentage of untreated control (UTC)	37 percentage of untreated control (UTC)	35 percentage of untreated control (UTC)	52 percentage of untreated control (UTC)							% Activity Relative to UTC (tube formation) ([6]; Table 56): 64.3%
327906 (antisense eT*e[5mC]*eA*eT*eA*eG*e[5mC]*e[5mC]*e[5mC]*eT*eG*eT*eA*e[5mC]*eA*eA*eT*eG*e[5mC]*eT*eG*e[5mC]*eT) [compound 327906]	25 percentage of untreated control (UTC)	46 percentage of untreated control (UTC)	37 percentage of untreated control (UTC)	14 percentage of untreated control (UTC)	50 percentage of untreated control (UTC)	69.0						
327904 (antisense eA*e[5mC]*eT*e[5mC]*eA*e[5mC]*e[5mC]*eG*eA*e[5mC]*eA*eG*e[5mC]*eG*eT*eT*eG*eA*eA*eT*eG*eT*eT) [compound 327904]						89.7						TG (triglyceride accumulation) [1, 8]: 56 percentage of untreated control (UTC); AP2 mRNA [2]: 65 percentage of untreated control (UTC); HSL mRNA [3]: 42 percentage of untreated control (UTC); GLUT4 mRNA [4]: 40 percentage of untreated control (UTC); PPAR gamma mRNA [5]: 54 percentage of untreated control (UTC)
327907 (antisense eA*eG*e[5mC]*e[5mC]*eT*eA*eT*e[5mC]*e[5mC]*eT*eG*eG*eA*eT*eT*eA*e[5mC]*eT*eT*eG*eA*eA) [compound 327907]	19 percentage of untreated control (UTC)	29 percentage of untreated control (UTC)	21 percentage of untreated control (UTC)	6 percentage of untreated control (UTC)	49 percentage of untreated control (UTC)	62.1						
327919 (antisense eG*eA*eA*eA*e[5mC]*e[5mC]*e[5mC]*eA*eG*e[5mC]*eA*eG*eA*e[5mC]*eA*eA*eT*eG*eT*eA*eG*e[5mC]*eT) [compound 327919]						103.5	0.58	0.79	0.57	0.32	0.52	TG (triglyceride accumulation) [1, 10]: 0.40; AP2 (mRNA expression) ([2]; Table 16): 0.48; HSL (mRNA expression) ([3]; Table 16): 0.37; Glut4 (mRNA expression) ([4]; Table 16): 0.18; PPAR gamma (mRNA expression) ([5]; Table 16): 0.57
327888 (antisense eA*eA*eT*eG*e[5mC]*e[5mC]*e[5mC]*e[5mC]*eT*eA*eA*eA*eA*eA*eT*e[5mC]*e[5mC]*eT*eT*eA*eT) [compound 327888]							0.98	1.18	1.38	1.37	1.36	TG (triglyceride accumulation) [1, 10]: 0.44; TG (triglyceride accumulation) [1, 8]: 132 percentage of untreated control (UTC); AP2 (mRNA expression) ([2]; Table 16): 0.47; AP2 mRNA [2]: 102 percentage of untreated control (UTC); HSL (mRNA expression) ([3]; Table 16): 0.50; HSL mRNA [3]: 134 percentage of untreated control (UTC); Glut4 (mRNA expression) ([4]; Table 16): 0.17; GLUT4 mRNA [4]: 84 percentage of untreated control (UTC); PPAR gamma (mRNA expression) ([5]; Table 16): 0.66; PPAR gamma mRNA [5]: 103 percentage of untreated control (UTC); % Activity Relative to UTC (tube formation) ([6]; Table 56): 100.0%
327887 (antisense eG*e[5mC]*eG*eA*e[5mC]*e[5mC]*eA*eT*eG*eG*e[5mC]*eT*eG*eT*eA*eG*eA*e[5mC]*eT*eG*eT*eT*eA) [compound 327887]	54 percentage of untreated control (UTC)	60 percentage of untreated control (UTC)	53 percentage of untreated control (UTC)	43 percentage of untreated control (UTC)	81 percentage of untreated control (UTC)							% Activity Relative to UTC (tube formation) ([6]; Table 56): 57.1%
327913 (antisense eA*eA*e[5mC]*e[5mC]*eG*eA*eT*eT*eT*e[5mC]*eA*eA*eA*eT*eG*eG*eT*eG*e[5mC]*eT*eA*eG) [compound 327913]						69.0	0.59	0.99	0.92	0.84	0.72	
327954 (antisense eA*e[5mC]*eA*eA*eA*eG*eT*eT*e[5mC]*eT*eG*eT*eG*eA*eT*eG*e[5mC]*eA*e[5mC]*eT*eG*eA) [compound 327954]							0.58	0.95	1.03	0.92	0.73	% Activity Relative to UTC (tube formation) ([6]; Table 59): 53.3%
327897 (antisense eA*e[5mC]*eA*eG*eG*e[5mC]*e[5mC]*eG*eG*eG*eA*e[5mC]*eA*eA*eG*eT*eG*e[5mC]*eA*eA*eT*eA) [compound 327897]	28 percentage of untreated control (UTC)	62 percentage of untreated control (UTC)	39 percentage of untreated control (UTC)	32 percentage of untreated control (UTC)	66 percentage of untreated control (UTC)							% Activity Relative to UTC (tube formation) ([6]; Table 59): 40.0%
327917 (antisense eT*e[5mC]*eA*eA*e[5mC]*eA*eT*e[5mC]*eA*eG*eT*e[5mC]*eT*eG*eA*eT*eA*eA*eG*e[5mC]*eT*eA) [compound 327917]	26 percentage of untreated control (UTC)	32 percentage of untreated control (UTC)	26 percentage of untreated control (UTC)	15 percentage of untreated control (UTC)	54 percentage of untreated control (UTC)	82.8						
327880 (antisense eA*e[5mC]*eA*eA*eA*eT*eT*e[5mC]*eG*eG*eT*eT*e[5mC]*eT*eA*e[5mC]*eA*eG*eG*eG*eT*eA) [compound 327880]							0.52	0.97	0.80	1.11	0.53	% Activity Relative to UTC (tube formation) ([6]; Table 56): 57.1%
327903 (antisense eA*eA*e[5mC]*eT*eA*eT*eA*e[5mC]*eA*eA*e[5mC]*e[5mC]*eT*eA*e[5mC]*eT*eA*e[5mC]*e[5mC]*eT*e[5mC]*eA) [compound 327903]						103.5	1.20	1.15	1.23	1.72	1.19	TG (triglyceride accumulation) [1, 10]: 0.58; AP2 (mRNA expression) ([2]; Table 16): 0.92; HSL (mRNA expression) ([3]; Table 16): 0.80; Glut4 (mRNA expression) ([4]; Table 16): 1.12; PPAR gamma (mRNA expression) ([5]; Table 16): 0.98
327928 (antisense eA*eA*e[5mC]*e[5mC]*eG*eA*eT*eT*eT*e[5mC]*eA*eG*eA*eT*eG*eG*eT*eG*e[5mC]*eT*eA*eG) [compound 327928]												TG (triglyceride accumulation) [1, 8]: 45 percentage of untreated control (UTC); AP2 mRNA [2]: 77 percentage of untreated control (UTC); HSL mRNA [3]: 52 percentage of untreated control (UTC); GLUT4 mRNA [4]: 39 percentage of untreated control (UTC); PPAR gamma mRNA [5]: 57 percentage of untreated control (UTC); % Activity Relative to UTC (tube formation) ([6]; Table 58): 37.0%
327941 (antisense eA*eA*e[5mC]*e[5mC]*e[5mC]*eA*e[5mC]*e[5mC]*eG*eA*e[5mC]*eA*eG*e[5mC]*eA*eA*eT*eG*eA*eA*eT*eG*eT*eT) [compound 327941]							1.31	1.78	1.73	2.07	0.80	TG (triglyceride accumulation) [1, 10]: 0.42; AP2 (mRNA expression) ([2]; Table 16): 0.88; HSL (mRNA expression) ([3]; Table 16): 0.81; Glut4 (mRNA expression) ([4]; Table 16): 0.44; PPAR gamma (mRNA expression) ([5]; Table 16): 0.86; % Activity Relative to UTC (tube formation) ([6]; Table 58): 74.1%
327934 (antisense eG*eG*eT*eA*e[5mC]*eA*eA*eT*e[5mC]*eA*eA*e[5mC]*eG*eG*eT*e[5mC]*eG*eA*eT*eG*eG*eT) [compound 327934]							0.99	1.20	1.02	1.22	0.97	TG (triglyceride accumulation) [1, 10]: 0.62; AP2 (mRNA expression) ([2]; Table 16): 0.66; HSL (mRNA expression) ([3]; Table 16): 0.64; Glut4 (mRNA expression) ([4]; Table 16): 0.44; PPAR gamma (mRNA expression) ([5]; Table 16): 0.72; % Activity Relative to UTC (tube formation) ([6]; Table 58): 51.9%
327885 (antisense eA*e[5mC]*eT*eA*e[5mC]*e[5mC]*eT*eG*e[5mC]*eA*e[5mC]*eT*eG*eT*eA*eA*eG*e[5mC]*eA*e[5mC]*eT*eT*eT*eG) [compound 327885]	29 percentage of untreated control (UTC)	69 percentage of untreated control (UTC)	57 percentage of untreated control (UTC)	40 percentage of untreated control (UTC)	59 percentage of untreated control (UTC)							% Activity Relative to UTC (tube formation) ([6]; Table 56): 50.0%
